Results taken from patent publication US7335770B2, “Triazine compounds and their analogs, compositions, and methods” (Reddy U5 Therapeutics, Inc., priority 2004, dated 2008).
Where two headings read alike, the source gives them in different places.

Test system: smooth muscle cells (SMC)
Assay: anti-proliferation assay (perlecan)
Type: cell-based
Conditions: for activity in anti-proliferation assay (Perlecan), in words: using the same activity scale used in Table 3; for IC50: anti-proliferation assay (perlecan)
Experimental: The activity scale used in Table 3 as follows (numbers are inclusive): “+++” represents IC50 of less than about 3 μM; “++” represents IC50 of between about 3 and about 7 μM; and “+” represents IC50 of greater than about 7 μM. In addition, compounds, to include compositions thereof, encompassed within the scope of structures Ia-XXIVa, respectively, or listed in Tables 1A and 1E may be likewise employed in this embodiment and/or aspect of the present invention. Further, any hydrogen atoms that are required for any atom to attain its usual valence in a structure presented in Table 3, whether a carbon atom or a heteroatom, should be inferred if it is not specifically indicated.
In addition to the above compounds, the following compounds and compositions comprising these compounds are active in an anti-proliferation assay (Perlecan). These compounds and compositions comprising these compounds are, among other things, generally useful for treating cardiovascular disorders associated with proliferative activity. Specifically, these compounds include N^2-cycloheptyl-N^4-(3-fluoro-4-methoxyphenyl)-N^6-methyl-N^6-(1-methyl-piperidin-4-yl)-1,3,5-triazine-2,4,6-triamine, and N^2-cycloheptyl-N^4-methyl-N^4-(1-methyl-piperidin-4-yl)-N^6-naphthalen-2-yl-1,3,5-triazine-2,4,6-triamine.
Methods for identifying the activity and screening for one or more of these compounds or molecules that induce synthesis of proteoglycans such as HSPG (heparan sulfate proteoglycan) are taught in U.S. patent application Ser. No. 10/091,357, which is incorporated herein in its entirety. Assays of effects of compounds in vivo are also taught in the incorporated references and are known to those skilled in the art. In general, methods comprise the addition of such compounds to assays and measurement of HSPG synthesis including, but not limited to, the production of syndecans, glypicans and perlecans, for example, syndecans 1, 2 and 4; and glypican-1. Other assays that can be used to determine the activity of the compounds of the present invention include other methods for measuring the induction of perlecan synthesis. For example, in one assay, perlecan is induced in cells by certain inducers, and the response is measured. Compounds of the present invention are then added to a replicate assay and the effect on perlecan induction is determined. Using such methods, compounds are determined that can either inhibit perlecan, elevate induction of perlecan, or that have no effect at all. Those compounds that are effective as therapeutic agents can then be used in animals, humans or patients with cellular proliferation disease aspects, such as vascular-associated diseases or SMC proliferation pathologies.
Another assay for determining compounds having SMC effects comprises adding a composition suspected of affecting SMC proliferation to smooth muscle cells in growth medium or serum-free medium. The change in cell proliferation can be measured by methods known to those skilled in the art, such as incorporation of labeled nucleotides into dividing cells' DNA, and compared to the proliferation of cells which are not treated with the compound. Other measurements include directly determining levels of HSPG synthesis by measuring the amount or change in amount of HSPG such as with ELISA for HSPGs, and compared to the amount of HSPG synthesis in untreated cells. Other indirect or direct measurement are contemplated by the present invention and are known to those skilled in the art. For example, such methods include, but are not limited to, measurement of RNA levels, RT-PCR, Northern blotting, Western blotting promoter-based assays to identify compounds that affect one or more proteoglycans and assays for proteoglycan biological activity shown by recombinant proteins, partially purified proteins, or lysates from cells expressing proteoglycans in the presence or absence of compounds of interest.

[1] = class of IC50, read-out: Activity (note 1)
[2] = some cells print no unit, read-out: Avg IC-50

SMILES | activity in anti-proliferation assay (Perlecan), in words | IC50 [1] | IC50 [2]
CCN1CCCC1CNc1nc(Nc2ccc(OC)c(F)c2)nc(N2CCN(CC(=O)N3CCCC3)CC2)n1.Cl.Cl (stereo not drawn) | high activity |  | 
COc1ccc(Nc2nc(NCCNC(=O)CCCCC3SCC4NC(=O)NC43)nc(NC3CCCCCC3)n2)cc1Cl (stereo not drawn) | high activity |  | 
COc1ccc(Nc2nc(NC3CCCCCC3)nc(-c3c(O)ccc4ccccc34)n2)cc1Cl [1-[4-(3-Chloro-4-methoxy-phenylamino)-6-cycloheptylamino-[1,3,5]triazin-2-yl]-naphthalen-2-ol] | high activity |  | 
COc1ccc(Nc2nc(NC3CCCCCC3)nc(Oc3ccc(C(C)=O)cc3Cl)n2)cc1Cl [1-{3-Chloro-4-[4-(3-chloro-4-methoxy-phenylamino)-6-cycloheptylamino-[1,3,5]triazin-2-yloxy]-phenyl}-ethanone] | high activity |  | 
COc1ccc(Nc2nc(NC3CCCCCC3)nc(OC3CCCN(C(C)=O)C3)n2)cc1Cl (stereo not drawn) [1-{3-[4-(3-Chloro-4-methoxy-phenylamino)-6-cycloheptylamino-[1,3,5]triazin-2-yloxy]-piperidin-1-yl}-ethanone] | high activity |  | 
COc1ccc(Nc2nc(NC3CCCCCC3)nc(Oc3ccc(C(C)=O)cc3)n2)cc1Cl [1-{4-[4-(3-Chloro-4-methoxy-phenylamino)-6-cycloheptylamino-[1,3,5]triazin-2-yloxy]-phenyl}-ethanone] | high activity |  | 
CCN1CCCC1CNc1nc(Nc2ccc(OC)c(F)c2)nc(N2CCN(CC(=O)N3CCCC3)CC2)n1 (stereo not drawn) [2-{4-[4-[(1-Ethyl-pyrrolidin-2-ylmethyl)-amino]-6-(3-fluoro-4-methoxy-phenylamino)-[1,3,5]triazin-2-yl]-piperazin-1-yl}-1-pyrrolidin-1-yl-ethanone] | high activity |  | 
CCc1occc(=O)c1Oc1nc(Nc2ccc(OC)c(Cl)c2)nc(NC2CCCCCC2)n1 [3-[4-(3-Chloro-4-methoxy-phenylamino)-6-cycloheptylamino-[1,3,5]triazin-2-yloxy]-2-ethyl-pyran-4-one] | high activity |  | 
CCOC(=O)/C=C/c1ccc(Oc2nc(Nc3ccc(OC)c(Cl)c3)nc(NC3CCCCCC3)n2)cc1 [3-{4-[4-(3-Chloro-4-methoxy-phenylamino)-6-cycloheptylamino-[1,3,5]triazin-2-yloxy]-phenyl}-acrylic acid ethyl ester] | high activity |  | 
COc1ccc(Nc2nc(NC3CCCCCC3)nc(NC3CCN(C(=O)CCCCC4SCC5NC(=O)NC54)CC3)n2)cc1Cl (stereo not drawn) [4-(5-{4-[4-(3-Chloro-4-methoxy-phenylamino)-6-cycloheptylamino-[1,3,5]triazin-2-ylamino]-piperidin-1-yl}-5-oxo-pentyl)-tetrahydro-thieno[3,4-d]imidazol-2-one] | high activity |  | 
COc1ccc(Nc2nc(NC3CCCCCC3)nc(-c3ccc(O)cc3O)n2)cc1Cl [4-[4-(3-Chloro-4-methoxy-phenylamino)-6-cycloheptylamino-[1,3,5]triazin-2-yl]-benzene-1,3-diol] | high activity |  | 
COc1ccc(Nc2nc(NC3CCCCCC3)nc(Oc3ccc(/C=N\O)cc3)n2)cc1Cl [4-[4-(3-Chloro-4-methoxy-phenylamino)-6-cycloheptylamino-[1,3,5]triazin-2-yloxy]-benzaldehyde oxime] | high activity |  | 
COc1ccc(Nc2nc(NC3CCCCCC3)nc(Oc3ccc(C=O)cc3)n2)cc1Cl [4-[4-(3-Chloro-4-methoxy-phenylamino)-6-cycloheptylamino-[1,3,5]triazin-2-yloxy]-benzaldehyde] | high activity |  | 
COc1ccc(Nc2nc(NC3CCCCCC3)nc(Oc3ccccc3C#CC(C)(C)O)n2)cc1Cl [4-{2-[4-(3-Chloro-4-methoxy-phenylamino)-6-cycloheptylamino-[1,3,5]triazin-2-yloxy]-phenyl}-2-methyl-but-3-yn-2-ol] | high activity |  | 
CCN1CCCC1CNc1nc(NC2CCCCCC2)nc(NC2CCC(O)CC2)n1 (stereo not drawn) [4-{4-Cycloheptylamino-6-[(1-ethyl-pyrrolidin-2-ylmethyl)-amino]-[1,3,5]triazin-2-ylamino}-cyclohexanol] | high activity |  | 
COc1ccc(Nc2nc(NC3CCCCCC3)nc(Oc3ccc(C#CC(C)(C)O)cc3)n2)cc1Cl [4-{4-[4-(3-Chloro-4-methoxy-phenylamino)-6-cycloheptylamino-[1,3,5]triazin-2-yloxy]-phenyl}-2-methyl-but-3-yn-2-ol] | high activity |  | 
COc1ccc(Nc2nc(NC(C)C)nc(Oc3ccc(C#CC(C)(C)O)cc3)n2)cc1Cl [4-{4-[4-(3-Chloro-4-methoxy-phenylamino)-6-isopropylamino-[1,3,5]triazin-2-yloxy]-phenyl}-2-methyl-but-3-yn-2-ol] | high activity |  | 
COc1ccc(Nc2nc(NNC(=O)CCCCC3SCC4NC(=O)NC43)nc(NC3CCCCCC3)n2)cc1Cl (stereo not drawn) [5-(2-Oxo-hexahydro-thieno[3,4-d]imidazol-4-yl)-pentanoic acid N′-[4-(3-chloro-4-methoxy-phenylamino)-6-cycloheptylamino-[1,3,5]triazin-2-yl]-hydrazide] | high activity |  | 
COc1ccc(Nc2nc(NCCCCCNC(=O)CCCCC3SCC4NC(=O)NC43)nc(NC3CCCCCC3)n2)cc1Cl (stereo not drawn) [5-(2-Oxo-hexahydro-thieno[3,4-d]imidazol-4-yl)-pentanoic acid {5-[4-(3-chloro-4-methoxy-phenylamino)-6-cycloheptylamino-[1,3,5]triazin-2-ylamino]-pentyl}-amide] | high activity |  | 
COc1ccc(Nc2nc(NC3CCCCCC3)nc(Sc3ccccc3C(C)(C)C)n2)cc1Cl [6-(2-tert-Butyl-phenylsulfanyl)-N-(3-chloro-4-methoxy-phenyl)-N′-cycloheptyl-[1,3,5]triazine-2,4-diamine] | high activity |  | 
CCN1CCCC1CNc1nc(Cl)nc(Nc2ccc(OC)c(F)c2)n1 (stereo not drawn) [6-Chloro-N-(1-ethyl-pyrrolidin-2-yl-methyl)-N′-(3-fluoro-4-meth-oxy-phenyl)-[1,3,5]triazine-2,4-di-amine] |  | 3 to 7 µM | 6.5 µM
Clc1nc(Cl)nc(NC2CCCCCC2)n1 [Cycloheptyl-(4,6-dichloro-[1,3,5]tri-azin-2-yl)-amine] |  | 3 to 7 µM | 3.75 µM
COc1ccc(Nc2nc(NCCN)nc(NC3CCCCCC3)n2)cc1Cl [N-(2-Amino-ethyl)-N′-(3-chloro-4-methoxy-phenyl)-N″-cycloheptyl-[1,3,5]triazine-2,4,6-triamine] | high activity |  | 
CCN1CCCC(Oc2nc(Nc3ccc(OC)c(Cl)c3)nc(NC3CCCCCC3)n2)C1 (stereo not drawn) [N-(3-Chloro-4-methoxy-phenyl)-N′-cycloheptyl-6-(1-ethyl-piperidin-3-yloxy)-[1,3,5]triazine-2,4-diamine] | high activity |  | 
COc1ccc(Nc2nc(NC3CCCCCC3)nc(OC3CCN(C)CC3)n2)cc1Cl [N-(3-Chloro-4-methoxy-phenyl)-N′-cycloheptyl-6-(1-methyl-piperidin-4-yloxy)-[1,3,5]triazine-2,4-diamine] | high activity |  | 
